Results reported in US20030086873A1, “Myocardial imaging agent and preparation method thereof” (priority 2001, published 2003).

Experiments:
Type in all cases: in vivo
[1] = Biological distribution in the bodies of Kunming mice after caudal vein injection
Description: The complexes [^99mTc(CO)3(OH2)3]^+ and [^99mTc(CO)3(MIBI)3]^+ prepared in Example 1 were separately injected in the caudal vein of Kunming mice. The experiment was conducted on three mice within each time period, and the injection's activity was 925 KBq. The radioactivity of individual organs's tissue was measured at 5, 15, 30, and 60 minutes after the injection, and the results are represented by radioactive uptake rate per gram of tissue.
The results of the distribution of [^99mTc(CO)3(OH2)3]^+ in the mice's bodies are included in Tables 2; the results for [^99mTc(CO)3(MIBI)3]^+ are presented in Table 3. The value “% ID/g” is the percentage of the injection's total radioactivity that each gram of tissue accounts for i.e., the radioactive uptake rate per gram of tissue, with ID standing for “injected dose.”

[2] = Dynamic SPECT imaging and biological distribution in dogs after intravenous injection; conditions: for Heart biological distribution / Kidneys biological distribution / Liver biological distribution / Lungs biological distribution: i.v.
Description: (§1) Dogs were intravenously injected with [^99mTc(CO)3(MIBI)3]^+ or [^99mTc(MIBI)6][…]at dose of […]. Immediately following injection, dynamic photography for up to 120 min was performed using a Toshiba GCA 7200A two-probe SPECT and a low energy parallel aperture regular collimator. Time—radioactivity curves were also collected for the heart, liver, lungs, and kidneys. Target/non-target radioactivity ratios were calculated, and fall body imaging was performed separately at different times. The biological distributions of the imaging agents in the body were analyzed. Vein blood samples were collected separately at different times, and the dynamics of the blood clearance was analyzed. Flat myocardial imaging was conducted separately at different times, with myocardial tomographic imaging at 120 minutes post injection.

[3] = Blood clearance kinetics in dogs (vein blood samples); conditions: intravenous administration, secondary model
Description: as §1

Target/Non-Target Uptake Ratio Heart/Blood ([1]; 5 Minutes): 20.99
Target/Non-Target Uptake Ratio Heart/Liver ([1]; 5 Minutes): 1.88
Target/Non-Target Uptake Ratio Heart/Lungs ([1]; 5 Minutes): 3.51
Blood radioactive uptake per gram of tissue ([1]; 5 Minutes after injection): 1.03 ± 0.21 % ID/g
Bones radioactive uptake per gram of tissue ([1]; 5 Minutes after injection): 3.72 ± 0.84 % ID/g
Brain radioactive uptake per gram of tissue ([1]; 5 Minutes after injection): 0.18 ± 0.02 % ID/g
Heart radioactive uptake per gram of tissue ([1]; 5 Minutes after injection): 21.62 ± 2.84 % ID/g
Kidneys radioactive uptake per gram of tissue ([1]; 5 Minutes after injection): 57.90 ± 1.80 % ID/g
Liver radioactive uptake per gram of tissue ([1]; 5 Minutes after injection): 11.48 ± 0.88 % ID/g
Lungs radioactive uptake per gram of tissue ([1]; 5 Minutes after injection): 6.16 ± 0.48 % ID/g
Muscles radioactive uptake per gram of tissue ([1]; 5 Minutes after injection): 7.08 ± 0.52 % ID/g
Spleen radioactive uptake per gram of tissue ([1]; 5 Minutes after injection): 6.26 ± 1.29 % ID/g
Target/Non-Target Uptake Ratio Heart/Blood ([1]; 15 Minutes): 64.47
Target/Non-Target Uptake Ratio Heart/Liver ([1]; 15 Minutes): 2.49
Target/Non-Target Uptake Ratio Heart/Lungs ([1]; 15 Minutes): 4.98
Blood radioactive uptake per gram of tissue ([1]; 15 Minutes after injection): 0.32 ± 0.05 % ID/g
Bones radioactive uptake per gram of tissue ([1]; 15 Minutes after injection): 2.10 ± 0.10 % ID/g
Brain radioactive uptake per gram of tissue ([1]; 15 Minutes after injection): 0.18 ± 0.02 % ID/g
Heart radioactive uptake per gram of tissue ([1]; 15 Minutes after injection): 20.63 ± 3.89 % ID/g
Kidneys radioactive uptake per gram of tissue ([1]; 15 Minutes after injection): 33.66 ± 0.42 % ID/g
Liver radioactive uptake per gram of tissue ([1]; 15 Minutes after injection): 8.28 ± 0.90 % ID/g
Lungs radioactive uptake per gram of tissue ([1]; 15 Minutes after injection): 4.14 ± 0.90 % ID/g
Muscles radioactive uptake per gram of tissue ([1]; 15 Minutes after injection): 3.78 ± 0.88 % ID/g
Spleen radioactive uptake per gram of tissue ([1]; 15 Minutes after injection): 3.84 ± 0.90 % ID/g
Target/Non-Target Uptake Ratio Heart/Blood ([1]; 30 Minutes): 86.54
Target/Non-Target Uptake Ratio Heart/Liver ([1]; 30 Minutes): 3.23
Target/Non-Target Uptake Ratio Heart/Lungs ([1]; 30 Minutes): 5.34
Blood radioactive uptake per gram of tissue ([1]; 30 Minutes after injection): 0.24 ± 0.07 % ID/g
Bones radioactive uptake per gram of tissue ([1]; 30 Minutes after injection): 1.94 ± 0.29 % ID/g
Brain radioactive uptake per gram of tissue ([1]; 30 Minutes after injection): 0.12 ± 0.01 % ID/g
Heart radioactive uptake per gram of tissue ([1]; 30 Minutes after injection): 20.77 ± 1.60 % ID/g
Kidneys radioactive uptake per gram of tissue ([1]; 30 Minutes after injection): 23.94 ± 2.11 % ID/g
Liver radioactive uptake per gram of tissue ([1]; 30 Minutes after injection): 6.44 ± 1.03 % ID/g
Lungs radioactive uptake per gram of tissue ([1]; 30 Minutes after injection): 3.89 ± 0.54 % ID/g
Muscles radioactive uptake per gram of tissue ([1]; 30 Minutes after injection): 6.14 ± 0.78 % ID/g
Spleen radioactive uptake per gram of tissue ([1]; 30 Minutes after injection): 2.84 ± 0.41 % ID/g
Target/Non-Target Uptake Ratio Heart/Blood ([1]; 60 Minutes): 149.15
Target/Non-Target Uptake Ratio Heart/Liver ([1]; 60 Minutes): 4.13
Target/Non-Target Uptake Ratio Heart/Lungs ([1]; 60 Minutes): 6.06
Blood radioactive uptake per gram of tissue ([1]; 60 Minutes after injection): 0.13 ± 0.04 % ID/g
Bones radioactive uptake per gram of tissue ([1]; 60 Minutes after injection): 1.42 ± 0.31 % ID/g
Brain radioactive uptake per gram of tissue ([1]; 60 Minutes after injection): 0.08 ± 0.01 % ID/g
Heart radioactive uptake per gram of tissue ([1]; 60 Minutes after injection): 19.39 ± 0.91 % ID/g
Kidneys radioactive uptake per gram of tissue ([1]; 60 Minutes after injection): 11.30 ± 0.73 % ID/g
Liver radioactive uptake per gram of tissue ([1]; 60 Minutes after injection): 4.69 ± 0.34 % ID/g
Lungs radioactive uptake per gram of tissue ([1]; 60 Minutes after injection): 3.20 ± 0.85 % ID/g
Muscles radioactive uptake per gram of tissue ([1]; 60 Minutes after injection): 4.42 ± 0.36 % ID/g
Spleen radioactive uptake per gram of tissue ([1]; 60 Minutes after injection): 1.62 ± 0.32 % ID/g
Concentration in livers ([1]; in words): comparatively low
Specific concentration in tissues / heart ([1]; in words): apparent concentration
heart:blood ratio compared with [^99mTc(MIBI)6]^+ ([1]; in words): comparable
heart:liver ratio compared with [^99mTc(MIBI)6]^+ ([1]; in words): higher
Radioactive retention ([1]; within 60 minutes, in words): good radioactive retention
Target/Non-Target Uptake Ratio Heart/Kidneys ([2]; 2 Minutes): 0.56 ± 0.13
Target/Non-Target Uptake Ratio Heart/Liver ([2]; 2 Minutes): 1 ± 0.18
Target/Non-Target Uptake Ratio Heart/Lungs ([2]; 2 Minutes): 2.51 ± 0.25
Target/Non-Target Uptake Ratio Heart/Kidneys ([2]; 5 Minutes): 0.53 ± 0.12
Target/Non-Target Uptake Ratio Heart/Liver ([2]; 5 Minutes): 0.98 ± 0.11
Target/Non-Target Uptake Ratio Heart/Lungs ([2]; 5 Minutes): 2.67 ± 0.27
Target/Non-Target Uptake Ratio Heart/Kidneys ([2]; 10 Minutes): 0.53 ± 0.1
Target/Non-Target Uptake Ratio Heart/Liver ([2]; 10 Minutes): 0.92 ± 0.13
Target/Non-Target Uptake Ratio Heart/Lungs ([2]; 10 Minutes): 2.6 ± 0.26
Target/Non-Target Uptake Ratio Heart/Kidneys ([2]; 20 Minutes): 0.59 ± 0.1
Target/Non-Target Uptake Ratio Heart/Liver ([2]; 20 Minutes): 0.97 ± 0.1
Target/Non-Target Uptake Ratio Heart/Lungs ([2]; 20 Minutes): 2.8 ± 0.44
Target/Non-Target Uptake Ratio Heart/Kidneys ([2]; 30 Minutes): 0.62 ± 0.15
Target/Non-Target Uptake Ratio Heart/Liver ([2]; 30 Minutes): 1.02 ± 0.11
Target/Non-Target Uptake Ratio Heart/Lungs ([2]; 30 Minutes): 2.96 ± 0.43
Target/Non-Target Uptake Ratio Heart/Kidneys ([2]; 40 Minutes): 0.58 ± 0.08
Target/Non-Target Uptake Ratio Heart/Liver ([2]; 40 Minutes): 1.06 ± 0.17
Target/Non-Target Uptake Ratio Heart/Lungs ([2]; 40 Minutes): 3 ± 0.51
Target/Non-Target Uptake Ratio Heart/Kidneys ([2]; 60 Minutes): 0.6 ± 0.06
Target/Non-Target Uptake Ratio Heart/Liver ([2]; 60 Minutes): 1.22 ± 0.2
Target/Non-Target Uptake Ratio Heart/Lungs ([2]; 60 Minutes): 3.05 ± 0.52
Target/Non-Target Uptake Ratio Heart/Kidneys ([2]; 90 Minutes): 0.6 ± 0.06
Target/Non-Target Uptake Ratio Heart/Liver ([2]; 90 Minutes): 1.25 ± 0.33
Target/Non-Target Uptake Ratio Heart/Lungs ([2]; 90 Minutes): 3.1 ± 0.49
Target/Non-Target Uptake Ratio Heart/Kidneys ([2]; 120 Minutes): 0.63 ± 0.04
Target/Non-Target Uptake Ratio Heart/Liver ([2]; 120 Minutes): 1.37 ± 0.26
Target/Non-Target Uptake Ratio Heart/Lungs ([2]; 120 Minutes): 3.09 ± 0.56
Heart biological distribution ([2]; 10 Minutes): 3.80 ± 0.44 % ID/g
Kidneys biological distribution ([2]; 10 Minutes): 15.33 ± 0.75 % ID/g
Liver biological distribution ([2]; 10 Minutes): 12.93 ± 0.70 % ID/g
Lungs biological distribution ([2]; 10 Minutes): 5.13 ± 0.06 % ID/g
Heart biological distribution ([2]; 20 Minutes): 3.97 ± 0.50 % ID/g
Kidneys biological distribution ([2]; 20 Minutes): 14.70 ± 1.14 % ID/g
Liver biological distribution ([2]; 20 Minutes): 14.00 ± 1.78 % ID/g
Lungs biological distribution ([2]; 20 Minutes): 4.70 ± 0.20 % ID/g
Heart biological distribution ([2]; 30 Minutes): 4.00 ± 0.30 % ID/g
Kidneys biological distribution ([2]; 30 Minutes): 14.53 ± 1.86 % ID/g
Liver biological distribution ([2]; 30 Minutes): 14.27 ± 1.97 % ID/g
Lungs biological distribution ([2]; 30 Minutes): 4.70 ± 0.26 % ID/g
Heart biological distribution ([2]; 40 Minutes): 3.73 ± 0.51 % ID/g
Kidneys biological distribution ([2]; 40 Minutes): 13.27 ± 1.65 % ID/g
Liver biological distribution ([2]; 40 Minutes): 16.37 ± 2.47 % ID/g
Lungs biological distribution ([2]; 40 Minutes): 4.80 ± 0.72 % ID/g
Heart biological distribution ([2]; 60 Minutes): 3.63 ± 0.49 % ID/g
Kidneys biological distribution ([2]; 60 Minutes): 12.23 ± 1.00 % ID/g
Liver biological distribution ([2]; 60 Minutes): 17.53 ± 2.85 % ID/g
Lungs biological distribution ([2]; 60 Minutes): 4.40 ± 0.44 % ID/g
Heart biological distribution ([2]; 90 Minutes): 3.77 ± 0.64 % ID/g
Kidneys biological distribution ([2]; 90 Minutes): 12.37 ± 1.75 % ID/g
Liver biological distribution ([2]; 90 Minutes): 19.67 ± 3.72 % ID/g
Lungs biological distribution ([2]; 90 Minutes): 4.20 ± 0.26 % ID/g
Heart biological distribution ([2]; 120 Minutes): 3.73 ± 0.58 % ID/g
Kidneys biological distribution ([2]; 120 Minutes): 12.40 ± 3.48 % ID/g
Liver biological distribution ([2]; 120 Minutes): 21.03 ± 2.78 % ID/g
Lungs biological distribution ([2]; 120 Minutes): 4.07 ± 0.15 % ID/g
Radioactivity in the liver compared with [^99mTc(MIBI)6]^+ ([2]; imaging, in words): clearly lower
Liver time-radioactivity curve relative to the myocardial curve ([2]; in words): lower than the myocardial curve
CL (blood clearance) [3]: 401.33 ± 73.51 mL/h
T(α)⅓ of blood clearance curve [3]: 1.33 ± 0.12 min
T(β)½ of blood clearance curve [3]: 102.33 ± 25.58 min
SMILES: COC(C)(C)CN=[C]=[99Tc+](=[C]=O)(=[C]=O)(=[C]=O)(=[C]=NCC(C)(C)OC)=[C]=NCC(C)(C)OC [[^99mTc(CO)3(MIBI)3]^+]
